# Assay results from PubChem BioAssay AID1963967 (Molecular Pharmacology Branch, DTP, NCI, 2024).
# System: 855422-203-R-J1-PDC spheroids with HUVEC/MSC, viability
# Assay: Anticancer human tumor 855422-203-R-J1-PDC patient-derived bladder carcinoma cell line growth inhibition [PI3K]
# Conditions: for IC50: curve of first compound; for viability, T/C: stronger effect = lower value
# Procedure, shortened: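 Spheroid viability read-out. Co-cultures contained the tumor line plus HUVEC and human MSCs. Each agent was paired with a PI3K inhibitor (inavolisib, alpelisib, duvelisib, copanlisib) across half-log dilutions starting at clinical Cmax, or at 10 microM when Cmax was unknown.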
# [1] = second compound 0.00316 µM, first compound 0.0316 µM
# [2] = second compound 0.00316 µM, first compound 0.1 µM
# [3] = second compound 0.00316 µM, first compound 0.316 µM
# [4] = second compound 0.00316 µM, first compound 1 µM
# [5] = second compound 0.01 µM, first compound 0.0316 µM
# [6] = second compound 0.01 µM, first compound 0.1 µM
# [7] = second compound 0.01 µM, first compound 0.316 µM
# [8] = second compound 0.01 µM, first compound 1 µM
# [9] = second compound 0.0316 µM, first compound 0.0316 µM
# [10] = second compound 0.0316 µM, first compound 0.1 µM
# [11] = second compound 0.0316 µM, first compound 0.316 µM
# [12] = second compound 0.0316 µM, first compound 1 µM
# [13] = second compound 0.1 µM, first compound 0.0316 µM
# [14] = second compound 0.1 µM, first compound 0.1 µM
# [15] = second compound 0.1 µM, first compound 0.316 µM
# [16] = second compound 0.1 µM, first compound 1 µM
# [17] = second compound 0.316 µM, first compound 0.0316 µM
# [18] = second compound 0.316 µM, first compound 0.1 µM
# [19] = second compound 0.316 µM, first compound 0.316 µM
# [20] = second compound 0.316 µM, first compound 1 µM
# [21] = second compound 1 µM, first compound 0.0316 µM
# [22] = second compound 1 µM, first compound 0.1 µM
# [23] = second compound 1 µM, first compound 0.316 µM
# [24] = second compound 1 µM, first compound 1 µM
# 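Note: agents incubated with spheroids for one week before read-out.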
# 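Throughout, for viability, T/C: 100% = DMSO vehicle-treated control wells.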
structure (smiles),measurement,setting,value
Cn1nccc1Nc1nccc(-c2ccn(C(CO)c3ccc(Cl)c(F)c3)c(=O)c2)n1 (centres undefined) + COc1c(OCCCN2CCOCC2)ccc2c3n(c(=NC(=O)c4cnc(N)nc4)nc12)CCN3,IC50,second compound 0.00316 µM,7.09 µM
same,IC50,second compound 0.01 µM,5.01 µM
same,IC50,second compound 0.0316 µM,1.04 µM
same,IC50,second compound 0.1 µM,< 0.0316 µM
same,IC50,second compound 0.316 µM,< 0.0316 µM
same,IC50,second compound 1 µM,< 0.0316 µM
same,"viability, T/C",[1],94.4%
same,"viability, T/C",[2],91.3%
same,"viability, T/C",[3],106%
same,"viability, T/C",[4],93.5%
same,"viability, T/C","second compound 0.00316 µM, first compound 3.16 µM",83.7%
same,"viability, T/C","second compound 0.00316 µM, first compound 10 µM",35.7%
same,"viability, T/C",[5],88.8%
same,"viability, T/C",[6],91.7%
same,"viability, T/C",[7],83.3%
same,"viability, T/C",[8],94.7%
same,"viability, T/C","second compound 0.01 µM, first compound 3.16 µM",67%
same,"viability, T/C","second compound 0.01 µM, first compound 10 µM",24.3%
same,"viability, T/C",[9],61%
same,"viability, T/C",[10],59.8%
same,"viability, T/C",[11],53.6%
same,"viability, T/C",[12],51.6%
same,"viability, T/C","second compound 0.0316 µM, first compound 3.16 µM",38.1%
same,"viability, T/C","second compound 0.0316 µM, first compound 10 µM",12.8%
same,"viability, T/C",[13],25.1%
same,"viability, T/C",[14],22.6%
same,"viability, T/C",[15],22.3%
same,"viability, T/C",[16],17.9%
same,"viability, T/C","second compound 0.1 µM, first compound 3.16 µM",10.5%
same,"viability, T/C","second compound 0.1 µM, first compound 10 µM",6.36%
same,"viability, T/C",[17],7.7%
same,"viability, T/C",[18],8.43%
same,"viability, T/C",[19],5.39%
same,"viability, T/C",[20],3.86%
same,"viability, T/C","second compound 0.316 µM, first compound 3.16 µM",3.44%
same,"viability, T/C","second compound 0.316 µM, first compound 10 µM",1.9%
same,"viability, T/C",[21],2.72%
same,"viability, T/C",[22],2.95%
same,"viability, T/C",[23],1.79%
same,"viability, T/C",[24],2.14%
same,"viability, T/C","second compound 1 µM, first compound 3.16 µM",0.55%
same,"viability, T/C","second compound 1 µM, first compound 10 µM",0.89%
CCN1CCN(Cc2ccc(Nc3ncc(F)c(-c4cc(F)c5nc(C)n(C(C)C)c5c4)n3)nc2)CC1 + COc1c(OCCCN2CCOCC2)ccc2c3n(c(=NC(=O)c4cnc(N)nc4)nc12)CCN3,IC50,second compound 0.00316 µM,> 1 µM
same,IC50,second compound 0.01 µM,0.409 µM
same,IC50,second compound 0.0316 µM,0.055 µM
same,IC50,second compound 0.1 µM,< 0.00316 µM
same,IC50,second compound 0.316 µM,< 0.00316 µM
same,IC50,second compound 1 µM,< 0.00316 µM
same,"viability, T/C","second compound 0.00316 µM, first compound 0.00316 µM",95.2%
same,"viability, T/C","second compound 0.00316 µM, first compound 0.01 µM",77.9%
same,"viability, T/C",[1],103%
same,"viability, T/C",[2],82.6%
same,"viability, T/C",[3],77.6%
same,"viability, T/C",[4],60.5%
same,"viability, T/C","second compound 0.01 µM, first compound 0.00316 µM",87.8%
same,"viability, T/C","second compound 0.01 µM, first compound 0.01 µM",89.9%
same,"viability, T/C",[5],85.2%
same,"viability, T/C",[6],71.1%
same,"viability, T/C",[7],52.9%
same,"viability, T/C",[8],41.6%
same,"viability, T/C","second compound 0.0316 µM, first compound 0.00316 µM",64.8%
same,"viability, T/C","second compound 0.0316 µM, first compound 0.01 µM",67.6%
same,"viability, T/C",[9],52.7%
same,"viability, T/C",[10],45.7%
same,"viability, T/C",[11],26.7%
same,"viability, T/C",[12],20.6%
same,"viability, T/C","second compound 0.1 µM, first compound 0.00316 µM",28.9%
same,"viability, T/C","second compound 0.1 µM, first compound 0.01 µM",29.3%
same,"viability, T/C",[13],22.7%
same,"viability, T/C",[14],15.6%
same,"viability, T/C",[15],12.2%
same,"viability, T/C",[16],13.9%
same,"viability, T/C","second compound 0.316 µM, first compound 0.00316 µM",11.5%
same,"viability, T/C","second compound 0.316 µM, first compound 0.01 µM",9.97%
same,"viability, T/C",[17],8.87%
same,"viability, T/C",[18],7.84%
same,"viability, T/C",[19],8.06%
same,"viability, T/C",[20],8.7%
same,"viability, T/C","second compound 1 µM, first compound 0.00316 µM",4.05%
same,"viability, T/C","second compound 1 µM, first compound 0.01 µM",5.98%
same,"viability, T/C",[21],4.02%
same,"viability, T/C",[22],4.36%
same,"viability, T/C",[23],4.5%
same,"viability, T/C",[24],5.49%
